Tests used:
human orexin-2 receptor = human orexin-2 receptor (Homo sapiens (Human), UniProt O43614); test: FLIPR Ca2+ Flux Assay, orexin-2 receptor; format: cell-based; details: CHO cells expressing the human orexin-2 receptor; agonist 70 pM Ala-6,12 orexin-A; read-out: hOX2R FLIPR IC50
Experimental: In a typical experiment the OX1 and OX2 receptor antagonistic activity of the compounds of the present invention was determined in accordance with the following experimental method. For intracellular calcium measurements, Chinese hamster ovary (CHO) cells expressing the rat orexin-1 receptor or the human orexin-2 receptor, are grown in Iscove's modified DMEM containing 2 mM L-glutamine, […], 1% hypoxanthine-thymidine supplement, 100 U/ml penicillin, 100 μg/ml streptomycin and 10% heat-inactivated fetal calf serum (FCS). The cells are seeded at 20,000 cells/well into Becton-Dickinson black 384-well clear bottom sterile plates coated with poly-D-lysine. All reagents were from GIBCO-Invitrogen Corp. The seeded plates are incubated overnight at 37° C. and 5% CO2. Ala-6,12 human orexin-A as the agonist is prepared as a 1 mM stock solution in 1% bovine serum albumin (BSA) and diluted in assay buffer (HBSS containing 20 mM HEPES, 0.1% BSA and 2.5 mM probenecid, pH7.4) for use in the assay at a final concentration of 70 pM. Test compounds are prepared as 10 mM stock solution in DMSO, then diluted in 384-well plates, first in DMSO, then assay buffer. On the day of the assay, cells are washed 3 times with 100 μl assay buffer and then incubated for 60 min (37° C., 5% CO2) in 60 μl assay buffer containing 1 μM Fluo-4 AM ester, 0.02% pluronic acid, and 1% BSA. The dye loading solution is then aspirated and cells are washed 3 times with 100 μl assay buffer. 30 μl of that same buffer is left in each well. Within the Fluorescent Imaging Plate Reader (FLIPR, Molecular Devices), test compounds are added to the plate in a volume of 25 μl, incubated for 5 min and finally 25 μl of agonist is added. Fluorescence is measured for each well at 1 second intervals for 5 minutes and the height of each fluorescence peak is compared to the height of the fluorescence peak induced by 70 pM Ala-6,12 orexin-A with buffer in place of antagonist. […] Alternatively, compound potency can be assessed by a radioligand binding assay (described in Bergman et. al. Bioorg. Med. Chem. Lett. 2008, 18, 1425-1430) in which the inhibition constant (Ki) is determined in membranes prepared from CHO cells expressing either the OX1 or OX2 receptor. The intrinsic orexin receptor antagonist activity of a compound which may be used in the present invention may be determined by these assays.

hOX1R = hOX1R (Homo sapiens, UniProt O43613); test: FLIPR Ca2+ Flux Assay, orexin-1 receptor; format: cell-based; details: CHO cells expressing orexin-1 receptor; agonist 70 pM Ala-6,12 orexin-A

Chain of human orexin-2 receptor (O43614 whole entry): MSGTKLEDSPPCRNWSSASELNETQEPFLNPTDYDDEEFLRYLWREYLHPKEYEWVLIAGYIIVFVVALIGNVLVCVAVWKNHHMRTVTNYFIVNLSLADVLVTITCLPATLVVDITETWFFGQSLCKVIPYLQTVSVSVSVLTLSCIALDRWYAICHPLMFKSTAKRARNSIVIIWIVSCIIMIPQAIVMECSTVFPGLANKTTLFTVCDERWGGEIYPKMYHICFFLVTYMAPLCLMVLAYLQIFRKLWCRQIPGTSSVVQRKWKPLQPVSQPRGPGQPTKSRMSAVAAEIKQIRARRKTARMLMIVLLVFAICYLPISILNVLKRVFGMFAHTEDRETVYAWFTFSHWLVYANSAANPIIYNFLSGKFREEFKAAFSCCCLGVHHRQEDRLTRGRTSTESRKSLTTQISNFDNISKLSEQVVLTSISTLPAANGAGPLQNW

Structure (SMILES)	IC50 (human orexin-2 receptor) [nM]	IC50 (hOX1R) [µM]
CCN(CCc1cc(C(C)(C)O)ccn1)C(=O)c1ccccc1-n1nccn1 [Example 1, N-Ethyl-N-{2-[4-(1-hydroxy-1-methylethyl)pyridin-2-yl]ethyl}-2-(2H-1,2,3-triazol-2-yl)benzamide]	69	> 10
CCN(CCc1cccc(C(C)(C)O)n1)C(=O)c1ccccc1-n1nccn1 [Example 4, N-Ethyl-N-{2-[6-(1-hydroxy-1-methylethyl)pyridin-2-yl]ethyl}-2-(2H-1,2,3-triazol-2-yl)benzamide]	15	–
CCN(CCc1cccc(C(C)(C)O)n1)C(=O)c1cccnc1OC(C)C [Example 5, N-Ethyl-N-{2-[6-(1-hydroxy-1-methylethyl)pyridin-2-yl]ethyl}-2-(1-methylethoxy)pyridine-3-carboxamide]	133	> 10
CCOc1ncccc1C(=O)N(CC)CCc1cccc(C(C)(C)O)n1 [Example 6, 2-ethoxy-N-ethyl-N-{2-[6-(1-hydroxy-1-methylethyl)pyridin-2-yl]ethyl}pyridine-3-carboxamide]	206	> 10
CCN(CCc1cccc(C(C)(C)O)n1)C(=O)c1ccccc1OC(F)F [Example 7, 2-(difluoromethoxy)-N-ethyl-N-{2-[6-(1-hydroxy-1-methylethyl)pyridin-2-yl]ethyl}benzamide]	196	> 10
CCN(CCc1cccc(C(C)(C)O)n1)C(=O)c1ccccc1OC(F)(F)F [Example 8, N-ethyl-N-{2-[6-(1-hydroxy-1-methylethyl)pyridin-2-yl]ethyl}-2-(trifluoromethoxy)benzamide]	32	> 10
CCN(CCc1cccc(C(C)(C)O)n1)C(=O)c1cccnc1OCC(F)F [Example 9, 2-(2,2-difluoroethoxy)-N-ethyl-N-{2-[6-(1-hydroxy-1-methylethyl)pyridin-2-yl]ethyl}pyridine-3-carboxamide]	95	> 10
CCN(CCc1cccc(C(C)(C)O)n1)C(=O)c1cccnc1OCC(F)(F)F [Example 10, N-ethyl-N-{2-[6-(1-hydroxy-1-methylethyl)pyridin-2-yl]ethyl}-2-(2,2,2-trifluoroethoxy)pyridine-3-carboxamide]	69	> 10
CCOc1ccccc1C(=O)N(CC)CCc1cccc(C(C)(C)O)n1 [Example 11, 2-ethoxy-N-ethyl-N-{2-[6-(1-hydroxy-1-methylethyl)pyridin-2-yl]ethyl}benzamide]	76	> 10
CCN(CCc1cccc(C(C)(C)O)n1)C(=O)c1ccccc1-n1cccn1 [Example 12, N-ethyl-N-{2-[6-(1-hydroxy-1-methylethyl)pyridin-2-yl]ethyl}-2-(1H-pyrazol-1-yl)benzamide]	66	> 10
CCN(CCc1cccc(C(C)(C)O)n1)C(=O)c1ccc(F)cc1-n1nccn1 [Example 13, N-ethyl-4-fluoro-N-{2-[6-(1-hydroxy-1-methylethyl)pyridin-2-yl]ethyl}-2-(2H-1,2,3-triazol-2-yl)benzamide]	8	> 10
CCN(CCc1cccc(C(C)(C)O)n1)C(=O)c1cccnc1-c1ccccc1 [Example 14, N-ethyl-N-{2-[6-(1-hydroxy-1-methylethyl)pyridin-2-yl]ethyl}-2-phenylpyridine-3-carboxamide]	103	> 10
CCN(CCc1cccc(C(C)(C)O)n1)C(=O)c1ccccc1C1CC1 [Example 15, 2-cyclopropyl-N-ethyl-N-{2-[6-(1-hydroxy-1-methylethyl)pyridin-2-yl]ethyl}benzamide]	43	> 10
CCCc1ccccc1C(=O)N(CC)CCc1cccc(C(C)(C)O)n1 [Example 16, N-ethyl-N-(2-(6-(2-hydroxypropan-2-yl)pyridin-2-yl)ethyl)-2-propylbenzamide]	104	> 10
CCN(CCc1cccc(C(C)(C)O)n1)C(=O)c1ccccc1OCC(F)(F)F [Example 17, N-ethyl-N-(2-(6-(2-hydroxypropan-2-yl)pyridin-2-yl)ethyl)-2-(2,2,2-trifluoroethoxy)benzamide]	261	> 10
CCN(CCc1cccc(C(C)(C)O)n1)C(=O)c1ccccc1CC(F)(F)F [Example 18, N-ethyl-N-(2-(6-(2-hydroxypropan-2-yl)pyridin-2-yl)ethyl)-2-(2,2,2-trifluoroethyl)benzamide]	–	> 10

Structure (SMILES)	IC50 (human orexin-2 receptor) [nM]	IC50 (hOX1R) [µM]
CCN(CCc1cccc(C(C)(C)O)n1)C(=O)c1ccc(OC)nc1C1CC1 [Example 19, 2-cyclopropyl-N-ethyl-N-(2-(6-(2-hydroxypropan-2-yl)pyridin-2-yl)ethyl)-6-methoxynicotinamide]	16	–
CCN(CCc1cccc(C(C)(C)O)n1)C(=O)c1ccccc1OCC(F)F [Example 20, 2-(2,2-difluoroethoxy)-N-ethyl-N-(2-(6-(2-hydroxypropan-2-yl)pyridin-2-yl)ethyl)benzamide]	136	> 10
CCN(CCc1cccc(C(C)(C)O)n1)C(=O)c1ccccc1CC(F)F [Example 23, 2-(2,2-difluoroethyl)-N-ethyl-N-(2-(6-(2-hydroxypropan-2-yl)pyridin-2-yl)ethyl)benzamide]	142	> 10
CCN(CCc1cccc(C(C)(C)O)n1)C(=O)c1cccnc1-n1cccn1 [Example 24, N-ethyl-N-(2-(6-(2-hydroxypropan-2-yl)pyridin-2-yl)ethyl)-2-(1H-pyrazol-1-yl)nicotinamide]	36	> 10
CCN(CCc1cccc(C(C)(C)O)n1)C(=O)c1ccccc1C1CCC1 [Example 25, 2-cyclobutyl-N-ethyl-N-(2-(6-(2-hydroxypropan-2-yl)pyridin-2-yl)ethyl)benzamide]	34	–
CCN(CCc1cccc(C(C)(C)O)n1)C(=O)c1ncccc1-c1ccccc1 [Example 26, N-ethyl-N-(2-(6-(2-hydroxypropan-2-yl)pyridin-2-yl)ethyl)-3-phenylpicolinamide]	452	> 10
CCN(CCc1cccc(C(C)(C)O)n1)C(=O)c1ccccc1N1CCCC1 [Example 28, N-ethyl-N-(2-(6-(2-hydroxypropan-2-yl)pyridin-2-yl)ethyl)-2-(pyrrolidin-1-yl)benzamide]	88	> 10
CCN(CCc1cccc(C(C)(C)O)n1)C(=O)c1ccccc1-n1ncnn1 [Example 29, N-ethyl-N-(2-(6-(2-hydroxypropan-2-yl)pyridin-2-yl)ethyl)-2-(2H-tetrazol-2-yl)benzamide]	146	> 10
CCN(CCc1cccc(C(C)(C)O)n1)C(=O)c1ccccc1C1CC1(F)F (stereo not drawn) [Example 31, 2-(2,2-difluorocyclopropyl)-N-ethyl-N-(2-(6-(2-hydroxypropan-2-yl)pyridin-2-yl)ethyl)benzamide]	14	9.04
CCN(CCc1cccc(C(C)(C)O)n1)C(=O)c1ccccc1-c1ncccn1 [Example 32, N-Ethyl-N-(2-(6-(2-hydroxypropan-2-yl)pyridin-2-yl)ethyl)-2-(pyrimidin-2-yl)benzamide]	16	7.36
CCN(CCc1ccc(C(C)(C)O)cn1)C(=O)c1ccccc1-n1nccn1 [Example 35, N-Ethyl-N-{2-[5-(1-hydroxy-1-methylethyl)pyridin-2-yl]ethyl}-2-(2H-1,2,3-triazol-2-yl)benzamide]	50	> 10
CCN(CCc1ccnc(C(C)(C)O)c1)C(=O)c1ccccc1-n1nccn1 [Example 37, N-Ethyl-N-{2-[2-(1-hydroxy-1-methylethyl)pyridin-4-yl]ethyl}-2-(2H-1,2,3-triazol-2-yl)benzamide]	124	> 10
CCN(CCc1cncc(C(C)(C)O)c1)C(=O)c1ccccc1-n1nccn1 [Example 38, N-Ethyl-N-{2-[5-(1-hydroxy-1-methylethyl)pyridin-3-yl]ethyl}-2-(2H-1,2,3-triazol-2-yl)benzamide]	152	> 10
CCN(CCc1cncc(C(C)(C)O)n1)C(=O)c1ccccc1-n1nccn1 [Example 39, N-Ethyl-N-{2-[6-(1-hydroxy-1-methylethyl)pyrazin-2-yl]ethyl}-2-(2H-1,2,3-triazol-2-yl)benzamide]	68	> 10
CCCc1ccccc1C(=O)N(CC)CCc1ccc(C(C)(C)O)cn1 [Example 52, N-ethyl-N-{2-[5-(1-hydroxy-1-methylethyl)pyridin-2-yl]ethyl}-2-propylbenzamide]	–	> 10
